Reference: patent US20230049231A1 (priority 2019, published 2023)

Tests used:
Kv1.3 potassium channel = molecular target: T1, Kv1.3 potassium channel (Homo sapiens, UniProt P22001); experiment: Kv1.3 potassium channel blocker activity, automated whole-cell patch clamp (Patchliner); type: cell-based
T1 construct: expressed in transfected cells
How it was run: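 IC50 came from Hill-equation fits of peak and AUC currents from the final pulse at each concentration, normalized to compound-free control. Compounds applied consecutively at 30 nM to 100 μM (up to 0.3% DMSO) to Kv1.3-expressing CHO-K1 cells, P/4 leak subtraction. Pulses were +40 mV, 100 ms, from −90 mV holding, at 0.1 Hz on Patchliner.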

hERG channel = molecular target: T2, hERG channel (Homo sapiens, UniProt Q12809); experiment: hERG electrophysiology, automated whole-cell patch clamp (Patchliner); type: cell-based
T2 construct: expressed in transfected cells
How it was run: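 Automated whole-cell patch clamp on CHO-K1 cells stably expressing hERG; 30 nM–100 μM applied cumulatively to the same cell, ≤0.3% DMSO. Pulses: −80 mV holding, +20 mV for 300 ms, −50 mV for 300 ms tail, 0.3 Hz, 70 per concentration. Last-pulse AUC and peak, normalized to control, were fitted to a Hill equation for IC50.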

[1] = Kv1.3 potassium channel, whole-cell patch clamp
[2] = hERG channel, whole-cell patch clamp
[3] = CHO-K1 cells stably expressing Kv1.3, 100 ms pulses from -90 mV to +40 mV, 0.1 Hz
[4] = CHO-K1 cells stably expressing hERG, +20 mV 300 ms, -50 mV 300 ms tail current, 0.3 Hz

T2 sequence (Q12809 whole entry): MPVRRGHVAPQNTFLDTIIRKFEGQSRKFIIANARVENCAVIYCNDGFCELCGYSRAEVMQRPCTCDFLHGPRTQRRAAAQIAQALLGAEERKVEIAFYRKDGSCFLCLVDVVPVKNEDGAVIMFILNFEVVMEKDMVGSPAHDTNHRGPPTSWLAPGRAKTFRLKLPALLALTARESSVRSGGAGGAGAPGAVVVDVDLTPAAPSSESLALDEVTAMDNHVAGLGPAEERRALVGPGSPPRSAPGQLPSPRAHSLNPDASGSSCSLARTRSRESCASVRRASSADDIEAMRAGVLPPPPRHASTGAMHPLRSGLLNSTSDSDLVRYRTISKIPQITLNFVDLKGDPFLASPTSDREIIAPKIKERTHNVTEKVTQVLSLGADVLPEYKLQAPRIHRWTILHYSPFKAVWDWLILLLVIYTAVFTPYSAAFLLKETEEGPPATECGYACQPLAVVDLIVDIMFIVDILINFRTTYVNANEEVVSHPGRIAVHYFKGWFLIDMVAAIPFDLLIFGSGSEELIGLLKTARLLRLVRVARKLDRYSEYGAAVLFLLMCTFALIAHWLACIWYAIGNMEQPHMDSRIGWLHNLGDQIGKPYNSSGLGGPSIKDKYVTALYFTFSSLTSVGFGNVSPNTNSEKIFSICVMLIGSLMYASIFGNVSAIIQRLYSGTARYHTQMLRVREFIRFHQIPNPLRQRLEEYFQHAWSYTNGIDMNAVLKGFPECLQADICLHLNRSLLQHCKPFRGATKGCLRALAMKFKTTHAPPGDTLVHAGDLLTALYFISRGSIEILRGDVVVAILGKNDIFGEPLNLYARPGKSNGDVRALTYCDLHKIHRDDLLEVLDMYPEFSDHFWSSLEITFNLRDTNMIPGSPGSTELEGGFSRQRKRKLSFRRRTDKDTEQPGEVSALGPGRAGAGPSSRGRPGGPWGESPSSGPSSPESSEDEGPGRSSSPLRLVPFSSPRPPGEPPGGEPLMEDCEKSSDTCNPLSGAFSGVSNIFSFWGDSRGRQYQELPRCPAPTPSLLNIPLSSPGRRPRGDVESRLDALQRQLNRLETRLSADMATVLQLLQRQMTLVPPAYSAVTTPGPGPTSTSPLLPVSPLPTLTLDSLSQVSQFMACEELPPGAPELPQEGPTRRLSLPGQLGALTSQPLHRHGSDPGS
T1 sequence (P22001 whole entry): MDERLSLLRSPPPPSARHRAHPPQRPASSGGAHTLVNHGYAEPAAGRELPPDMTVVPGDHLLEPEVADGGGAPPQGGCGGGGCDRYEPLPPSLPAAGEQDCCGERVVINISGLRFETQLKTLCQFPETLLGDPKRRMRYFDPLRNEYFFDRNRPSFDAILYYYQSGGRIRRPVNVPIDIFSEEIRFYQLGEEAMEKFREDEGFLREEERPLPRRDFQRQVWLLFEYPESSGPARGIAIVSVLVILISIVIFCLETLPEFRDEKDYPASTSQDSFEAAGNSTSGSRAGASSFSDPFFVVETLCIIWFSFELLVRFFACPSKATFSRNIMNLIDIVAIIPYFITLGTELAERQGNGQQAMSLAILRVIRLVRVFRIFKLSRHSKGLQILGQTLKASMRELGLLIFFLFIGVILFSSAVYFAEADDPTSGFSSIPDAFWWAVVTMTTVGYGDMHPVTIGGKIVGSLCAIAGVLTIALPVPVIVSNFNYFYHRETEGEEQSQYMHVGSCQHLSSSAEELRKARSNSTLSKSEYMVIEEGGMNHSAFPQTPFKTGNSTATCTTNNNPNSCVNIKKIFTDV

IC50 (Kv1.3 potassium channel; [1]) [µM] | IC50 (Kv1.3 potassium channel; [3]) [µM] | SMILES | IC50 (hERG channel; [2]) [µM] | IC50 (hERG channel; [4]) [µM]
< 1 | – | O=C1OC[C@H](O)[C@@H]2C[C@H](c3c(O)ccc(Cl)c3Cl)CN12 (single isomer, unassigned) [Compound 267] | > 30 | –
< 1 | – | O=C1O[C@@H]([C@H](O)CO)[C@@H]2C[C@H](c3c(O)ccc(Cl)c3Cl)CN12 (single isomer, unassigned) [Compound 261] | > 30 | –
< 1 | – | O=C1CN([C@H]2C[C@@H](O)C2)C[C@@H]2C[C@H](c3c(O)ccc(Cl)c3Cl)CN12 (relative stereo) [Compound 126, (7R,8aS)-7-(2,3-dichloro-6-hydroxyphenyl)-2-[(1s,3R)-rel-3-hydroxycyclobutyl] hexahydropyrrolo [1,2-a]pyrazin-4-one] | > 30 | –
< 1 | – | NC[C@@H]1OC(=O)N2C[C@@H](c3c(O)ccc(Cl)c3Cl)C[C@@H]12 (single isomer, unassigned) [Compound 272] | < 30 | –
< 1 | – | CC(C)(O)[C@@H]1OC(=O)N2C[C@@H](c3c(O)ccc(Cl)c3Cl)C[C@@H]12 (single isomer, unassigned) [Compound 256] | > 30 | –
< 1 | – | O=C1CN(c2cnc(CO)cn2)C[C@@H]2C[C@H](c3c(O)ccc(Cl)c3Cl)CN12 [Compound 172] | < 30 | –
< 1 | – | O=C1CC(N2CCNCC2)C[C@@H]2C[C@H](c3c(O)ccc(Cl)c3Cl)CN12 (single isomer, unassigned) [Compound 207] | > 30 | –
< 1 | – | O=C1CN(C[C@@H]2COCCN2)C[C@@H]2C[C@H](c3c(O)ccc(Cl)c3Cl)CN12 [Compound 144, (7R,8aS)-7-(2,3-dichloro-6-hydroxyphenyl)-2-[(3R)-morpholin-3-ylmethyl]-hexahydropyrrolo [1,2-a]pyrazin-4-one] | > 30 | –
< 1 | – | O=C(C[C@@H](O)CO)N1CC(=O)N2C[C@@H](c3c(O)ccc(Cl)c3Cl)C[C@H]2C1 [Compound 78, (7R,8aS)-7-(2,3-dichloro-6-hydroxyphenyl)-2-[(3R)-3,4-dihydroxybutanoyl]-hexahydropyrrolo [1,2-a]pyrazin-4-one] | > 30 | –
< 1 | – | CC1(O)CN(C(=O)N2CC(=O)N3C[C@@H](c4c(O)ccc(Cl)c4Cl)C[C@H]3C2)C1 [Compound 100, (7R,8aS)-7-(2,3-dichloro-6-hydroxyphenyl)-2-(3-hydroxy-3-methylazetidine-1-carbonyl)-hexahydropyrro[1,2-a]pyrazine-4-one] | > 30 | –
< 1 | – | CC(CO)N1CC(=O)N2C[C@@H](c3c(O)ccc(Cl)c3Cl)C[C@H]2C1 (stereo partly drawn) [Compound 127, (7R,8aS)-7-(2,3-dichloro-6-hydroxyphenyl)-2-(1-hydroxypropan-2-yl)-hexahydropyrrolo [1,2-a]pyrazin-4-one] | > 30 | –
– | < 1 | C[C@@H](O)C(=O)N1CC(=O)N2CC[C@@H](c3c(O)ccc(Cl)c3Cl)C[C@H]2C1 [Compound 16, (8R,9aS)-8-(2,3-dichloro-6-hydroxyphenyl)-2-[(2R)-2-hydroxypropanoyl]-hexahydro-1H-pyrido[1,2-a]pyrazin-4-one] | – | > 30
< 1 | – | O=C1CCC[C@@H]2C[C@H](c3c(O)ccc(Cl)c3Cl)CN12 [Compound 223, (2R,8aR)-2-(2,3-dichloro-6-hydroxyphenyl)-hexahydro-1H-indolizin-5-one] | > 30 | –
< 1 | – | O=C1O[C@@H]([C@@H](O)CO)[C@@H]2C[C@H](c3c(O)ccc(Cl)c3Cl)CN12 (single isomer, unassigned) [Compound 260] | > 30 | –
– | < 1 | O=C(CO)N1CC(=O)N2CC[C@@H](c3c(O)cc(Cl)c(Cl)c3Cl)C[C@H]2C1 [Compound 38, (8R,9aS)-2-(2-hydroxyacetyl)-8-(2,3,4-trichloro-6-hydroxyphenyl)octahydro-4H-pyrido[1,2-a]pyrazin-4-one] | – | > 30
– | < 1 | O=C(CO)N1CC(=O)N2CC(c3c(O)ccc(Cl)c3Cl)C[C@H]2C1 (stereo partly drawn) [Compound 24, (8aS)-7-(2,3-dichloro-6-hydroxyphenyl)-2-(2-hydroxyacetyl)-hexahydropyrrolo[1,2-a]pyrazin-4-one] | – | > 30
– | < 1 | C[C@H]1C(=O)N2CC[C@@H](c3c(O)ccc(Cl)c3Cl)C[C@H]2CN1C(=O)CO [Compound 46, (3S,8R,9aS)-8-(2,3-dichloro-6-hydroxyphenyl)-2-(2-hydroxyacetyl)-3-methyloctahydro-4H-pyrido[1,2-a]pyrazin-4-one] | – | > 30
< 1 | – | O=C1CN(C[C@H](O)CO)C[C@@H]2C[C@H](c3c(O)ccc(Cl)c3Cl)CN12 (single isomer, unassigned; isomer 2) [Compound 115] | > 30 | –

IC50 (Kv1.3 potassium channel; [1]) [µM] | IC50 (Kv1.3 potassium channel; [3]) [µM] | SMILES | IC50 (hERG channel; [2]) [µM] | IC50 (hERG channel; [4]) [µM]
< 1 | – | NC[C@H]1OC(=O)N2C[C@@H](c3c(O)ccc(Cl)c3Cl)C[C@@H]12 (single isomer, unassigned) [Compound 273] | > 30 | –
< 1 | – | O=C1CN(C[C@@H](O)CO)C[C@@H]2C[C@H](c3c(O)ccc(Cl)c3Cl)CN12 (single isomer, unassigned) [Compound 114] | > 30 | –
– | < 1 | CO[C@H](CO)C(=O)N1CC(=O)N2CC[C@@H](c3c(O)ccc(Cl)c3Cl)C[C@H]2C1 [Compound 29, (8R,9aS)-8-(2,3-dichloro-6-hydroxyphenyl)-2-[(2R)-3-hydroxy-2-methoxypropanoyl]-hexahydro-1H-pyrido[1,2-a]pyrazin-4-one] | – | > 30
< 1 | – | N[C@@H]1CC(=O)N2C[C@@H](c3c(O)ccc(Cl)c3Cl)C[C@H]2C1 (single isomer, unassigned) [Compound 190] | > 30 | –
< 1 | – | O=C(CO)NCC1OC[C@@H]2C[C@H](c3c(O)ccc(Cl)c3Cl)CCN2C1=O (stereo partly drawn) [Compound 185, N-[[(8R,9aS)-8-(2,3-dichloro-6-hydroxyphenyl)-4-oxo-hexahydro-1H-pyrido[2,1-c][1,4]oxazin-3-yl]methyl]-2-hydroxyacetamide] | > 30 | –
– | < 1 | O=C(CO)N1CCC(=O)N2C[C@@H](c3c(O)ccc(Cl)c3Cl)C[C@H]2C1 [Compound 18, (8R,9aS)-8-(2,3-dichloro-6-hydroxyphenyl)-2-(2-hydroxyacetyl)-hexahydro-1H-pyrrolo[1,2-a][1,4]diazepin-5-one] | – | > 30
< 1 | – | O=C1CN([C@@H]2COC[C@H]2O)C[C@@H]2C[C@H](c3c(O)ccc(Cl)c3Cl)CN12 (relative stereo) [Compound 155, (7R,8aS)-7-(2,3-dichloro-6-hydroxyphenyl)-2-[(3R,4S)-rel-4-hydroxyoxolan-3-yl]-hexahydropyrrolo[1,2-a]pyrazin-4-one] | > 30 | –
< 1 | – | C[C@@H](CO)N1CC(=O)N2C[C@@H](c3c(O)ccc(Cl)c3Cl)C[C@H]2C1 (single isomer, unassigned; isomer 2) [Compound 117] | > 30 | –
– | < 1 | C[C@H](CO)C(=O)N1CC(=O)N2CC[C@@H](c3c(O)ccc(Cl)c3Cl)C[C@H]2C1 [Compound 54, (8R,9aS)-8-(2,3-dichloro-6-hydroxyphenyl)-2-((R)-3-hydroxy-2-methylpropanoyl)octahydro-4H-pyrido[1,2-a]pyrazin-4-one] | – | > 30
< 1 | – | O=C1C[C@@H](CO)C[C@@H]2C[C@H](c3c(O)ccc(Cl)c3Cl)CN12 (single isomer, unassigned) [Compound 237] | > 30 | –
< 1 | – | O=C1CC(O)(CO)C[C@@H]2C[C@H](c3c(O)ccc(Cl)c3Cl)CN12 (stereo partly drawn) [Compound 220, (2R,8aS)-2-(2,3-dichloro-6-hydroxyphenyl)-7-hydroxy-7-(hydroxymethyl)-hexahydroindolizin-5-one] | > 30 | –
< 1 | – | CN(CCO)[C@H]1CC(=O)N2C[C@@H](c3c(O)ccc(Cl)c3Cl)C[C@H]2C1 (single isomer, unassigned) [Compound 205] | > 30 | –
< 1 | – | C[C@H]1CC(=O)N2C[C@@H](c3c(O)ccc(Cl)c3Cl)C[C@H]2CN1C(=O)CO [Compound 94, (3S,8R,9aS)-8-(2,3-dichloro-6-hydroxyphenyl)-2-(2-hydroxyacetyl)-3-methyl-hexahydro-1H-pyrrolo[1,2-a][1,4]diazepin-5-one] | > 30 | –
< 1 | – | O=C1C[C@@H](N2CC[C@@H](O)C2)C[C@@H]2C[C@H](c3c(O)ccc(Cl)c3Cl)CN12 (single isomer, unassigned) [Compound 192] | > 30 | –
< 1 | – | O=C1NC[C@@H]2C[C@H](c3c(O)ccc(Cl)c3Cl)CN12 [Compound 293, (6R,7aS)-6-(2,3-dichloro-6-hydroxyphenyl)-hexahydropyrrolo[1,2-c]imidazol-3-one] | > 30 | –
– | < 1 | O=C(CO)N1CC(=O)N2CC[C@@H](c3c(O)ccc(Cl)c3Cl)C[C@H]2C1 [Compound 1, (8R,9aS)-8-(2,3-dichloro-6-hydroxyphenyl)-2-(2-hydroxyacetyl)-hexahydro-1H-pyrido[1,2-a]pyrazin-4-one] | – | > 30
< 1 | – | O=C1C[C@H](NCCO)C[C@@H]2C[C@H](c3c(O)ccc(Cl)c3Cl)CN12 (single isomer, unassigned) [Compound 203] | > 30 | –
< 1 | – | O=C1O[C@H]([C@@H](O)CO)[C@@H]2C[C@H](c3c(O)ccc(Cl)c3Cl)CN12 (single isomer, unassigned) [Compound 262] | > 30 | –
